Assays:
[1] = tested on: patients with essential blepharospasm; assay: Jankovic rating scale (JRS) sum score, severity plus frequency of eyelid spasms, before and immediately after lens placement; format: in vivo, human; details: sum of severity (0-4) and frequency (0-4) scores immediately after lens placement
Protocol: (§1) All patients in the study have an established diagnosis of essential blepharospasm currently managed with botulinum toxin injections. Prior to treatment with the fluorescein dye, patients are evaluated for their blink rate as determined by the number of blinks per minute. Patients are also evaluated using the Jankovic rating scale which has 2 components: 1. The severity of the eyelid spasms are rated from 0-4 (0=no spasms, 4=severe incapacitating spasms) and, 2. The frequency of spasms are rated from 0-4 (0=no spasms, 4=persistent eye closure). The sum of the severity score and the frequency score is then computed. Patients are then fitted with a scleral contact lens with normal saline solution mixed with fluorescein dye placed in the fluid reservoir. The blink rate and JRS sum score are then assessed immediately after placement of the lens.

[2] = tested on: patients with essential blepharospasm; assay: Blink rate before and immediately after placement of a scleral contact lens with fluorescein dye in the fluid reservoir; format: in vivo, human; details: immediately after placement of scleral lens with saline mixed with fluorescein dye
Protocol: as §1

With `O=C1OC2(c3ccc(O)cc3Oc3cc(O)ccc32)c2ccccc21` [fluorescein] the “Post JRS” value ([1]; Patient 1, pre JRS 7) was 1, the “Post JRS” value ([1]; Patient 2, pre JRS 6) was 3 and the “Post JRS” value ([1]; Patient 3, pre JRS 6) was 4. The “Post JRS” value ([1]; Patient 4, pre JRS 7) was 4, the “Post JRS” value ([1]; Patient 5, pre JRS 7) was 3 and the Post blink-rate ([2]; Patient 1, pre blink-rate 80) was 10 blinks per minute. For the same compound, the Post blink-rate ([2]; Patient 2, pre blink-rate 50) was 20 blinks per minute, the Post blink-rate ([2]; Patient 3, pre blink-rate 60) was 40 blinks per minute and the Post blink-rate ([2]; Patient 4, pre blink-rate 70) was 35 blinks per minute. The Post blink-rate ([2]; Patient 5, pre blink-rate 70) was 49 blinks per minute.

— US20190350895A1, “PHOTOCHROMATIC MODULATION WITH FLUORESCEIN FOR THE TREATMENT OF PHOTO-OCULODYNIA AND BLEPHAROSPASM” (Baylor College of Medicine, priority 2016, published 2019)
